# Columns and labels:
# βarr1 = molecular target: T1, βarr1 (Homo sapiens, UniProt P49407, C125S/C140L/C150V/C242V/C251V/C269S/C59V/D390C); experiment: 19F CEST experiments on βarr1; assay type: biochemical
# T1 construct: we started from a full-length functional cysteine-less βarr1 construct[20]; 6xHis-tag with SSG linker and thrombin cleavage site (N, cleaved yes); made in house; host or cells: E. coli BL21(DE3)
# Protocol: The ^19F CEST experiments were acquired at 298 K on Bruker AVANCE III HD 800 MHz spectrometer equipped a ^1H-^19F/^13C/^15N TCI triple resonance cryogenic probe. Sample preparation was the same as for the 1D ^19F NMR experiments, and the protein concentrations were in the range of 50–100 μM depending on the expression levels of different constructs. For each ^19F-labeled sample, a series of 1D saturation transfer experiments were recorded using a 0.2 s recovery delay followed by a 1.8 s saturation period using irradiation field strengths B1 of 10 Hz. For each sample, the positions and spacings of the carrier frequencies for saturation were determined based on the multiple signals observed in the 1D ^19F spectra, normally covering the chemical shift ranges of the signals of interest. The data were collected with a spectral width of 15,000 Hz and the scan number in the range of 400–1500. The spectra were processed and analyzed using the Bruker Topspin 4.2.0 software. The CEST profiles were drawn using GraphPad Prism® 9.
# [1] = system: βarr1-3Q (K232Q/R236Q/K250Q); experiment: 1D 19F NMR of PIP2-binding deficient mutant; assay type: biochemical, human; conditions: H295C site
# Protocol: The ^19F-labeled βarr1 was diluted to 50 μM using buffer E before incubation with peptides or PIP2. The V2Rpp, β2AR-GRK2pp/GRK6pp or PIP2 were added at 1.2-fold, 3-fold, and 1.5-fold molar ratio excess to the protein, respectively. For the membrane-bound sample, the reconstituted nanodiscs were added at twofold molar ratio of βarr1. All complexes were incubated at 25 °C for 1 h, and the freshly prepared samples were immediately subjected to ^19F NMR experiments.
# NMR samples were prepared in buffer E to a final volume of 140 μL, supplemented with 1 mM DTT, 10% D2O for field lock, and 1 μM sodium trifluoroacetate (STFA) as the internal chemical shift reference. All samples were sterile-filtered and loaded into sterile 3 mm NMR microtubes to prevent microbial contamination. Final protein concentrations vary for different constructs, depending on their expression levels and stabilities, but all in the range of 20–50 μM.
# (§1) All ^19F NMR spectra were recorded at 298 K using a Bruker AVANCE III HD 800 MHz spectrometer equipped with a ^1H-^19F/^13C/^15N TCI triple resonance cryogenic probe. […] The carrier frequency was set to −68.0 ppm and the spectra were recorded with 4k points and a spectral width of 15,000 Hz. […]
# All NMR data were analyzed using the MestraNova 12.0.0 software (https://mnova.pl). […] Peak intensities, integrated peak area and linewidths were determined based on the fitted results.
# [2] = system: βarr1-ΔCT (residues 1–382); experiment: 19F NMR (1D and CEST) of CT-truncated construct; assay type: biochemical, human; conditions: E206C site; PIP2 added to pre-activated ΔCT state
# Excerpt: The cysteine-less mutant (C59V/C125S/C140L/C150V/C242V/C251V/C269S) of the long splice variant of human βarr1 was used for introduction of single site cysteine mutation for ^19F labeling. The sequence was codon-optimized for expression in Escherichia coli and cloned into a pET-28a(+) vector (Novagen), with an N-terminal 6xHis-tag, followed by an SSG linker and a thrombin cleavage site. All mutants, including the 1–382 (βarr1-ΔCT) and 1–395 truncation constructs, were generated using site-directed mutagenesis kits (Thermo Fisher). Primer sequences for generating the mutants are listed in Supplementary Table 4.
# The ^19F-labeled βarr1 was diluted to 50 μM using buffer E before incubation with peptides or PIP2. The V2Rpp, β2AR-GRK2pp/GRK6pp or PIP2 were added at 1.2-fold, 3-fold, and 1.5-fold molar ratio excess to the protein, respectively. […]
# as §1
# All NMR data were analyzed using the MestraNova 12.0.0 software (https://mnova.pl). […] Peak intensities, integrated peak area and linewidths were determined based on the fitted results. […]
# T1 sequence (P49407 whole entry C59V/C125S/C140L/C150V/C242V/C251V/C269S/D390C): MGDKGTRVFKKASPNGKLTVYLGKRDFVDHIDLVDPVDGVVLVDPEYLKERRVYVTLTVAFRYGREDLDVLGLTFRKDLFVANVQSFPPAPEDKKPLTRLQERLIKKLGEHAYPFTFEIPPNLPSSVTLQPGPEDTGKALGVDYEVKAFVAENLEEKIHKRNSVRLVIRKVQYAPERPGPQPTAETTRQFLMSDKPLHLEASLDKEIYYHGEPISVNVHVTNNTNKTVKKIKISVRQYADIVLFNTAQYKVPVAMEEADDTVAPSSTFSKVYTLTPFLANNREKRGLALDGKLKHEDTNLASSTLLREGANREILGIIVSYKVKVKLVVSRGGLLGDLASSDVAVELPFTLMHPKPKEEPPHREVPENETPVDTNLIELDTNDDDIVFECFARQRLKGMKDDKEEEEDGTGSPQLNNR
compound,measurement,setting,value
"CCCCCCCC(=O)OC[C@H](COP(=O)(O)O[C@@H]1[C@H](O)[C@H](O)[C@@H](OP(=O)(O)O)[C@H](OP(=O)(O)O)[C@H]1O)OC(=O)CCCCCCC [PIP2, diC8-PI(4,5)P2]",Intermediate S* state by CEST,βarr1; D390C site,induces an intermediate conformational species designated as S*
same,Intermediate S* state by CEST,βarr1; E404C and T6C sites,induces the conformational equilibrium to shift from the basal towards an intermediate S* state
same,Intermediate S* state by CEST,βarr1; H295C site,present in relatively large fraction in both the basal and PIP2-bound states
same,Transition to S2 state,[1],such spectral changes were not observed
same,Active S2 conformation,[2],increases the active S2 conformation

# Reference: paper PMC10686989, “Distinct activation mechanisms of β-arrestin-1 revealed by ^19F NMR spectroscopy” (Nature Communications, 2023)
